Assays:
[1] = target: Mu-type opioid receptor (Homo sapiens) (UniProt P35372); assay: Partial agonist activity at mu opioid receptor (unknown origin) expressed in CHO cell membranes incubated for 1 hr by [35S]GTPgammaS binding assay relative to DAMGO; assay type: functional; settings: Membrane
Mu-type opioid receptor [2] = target: T1, Mu-type opioid receptor (Mus musculus, UniProt P42866); assay: Displacement of [3H]-NLX from mouse mu opioid receptor expressed in CHO cell membranes measured after 1.5 hrs by competitive radioligand binding assay; set-up: species or system Membrane
Mu-type opioid receptor [3] = target: T1, Mu-type opioid receptor; assay: Partial agonist activity at mouse mu opioid receptor expressed in CHO cell membranes incubated for 1.5 hrs by [35S]GTPgammaS binding based scintillation counting method; assay type: functional, Membrane
[4] = target: Mu-type opioid receptor (Mus musculus) (UniProt P42866); assay: Partial agonist activity at mouse mu opioid receptor expressed in CHO cell membranes assessed as stimulation of [35S]GTPgammaS binding incubated for 1.5 hrs by scintillation counting method relative to DAMGO; assay type: functional; settings: Membrane
Mu-type opioid receptor (Mus musculus), sequence (P42866 whole entry): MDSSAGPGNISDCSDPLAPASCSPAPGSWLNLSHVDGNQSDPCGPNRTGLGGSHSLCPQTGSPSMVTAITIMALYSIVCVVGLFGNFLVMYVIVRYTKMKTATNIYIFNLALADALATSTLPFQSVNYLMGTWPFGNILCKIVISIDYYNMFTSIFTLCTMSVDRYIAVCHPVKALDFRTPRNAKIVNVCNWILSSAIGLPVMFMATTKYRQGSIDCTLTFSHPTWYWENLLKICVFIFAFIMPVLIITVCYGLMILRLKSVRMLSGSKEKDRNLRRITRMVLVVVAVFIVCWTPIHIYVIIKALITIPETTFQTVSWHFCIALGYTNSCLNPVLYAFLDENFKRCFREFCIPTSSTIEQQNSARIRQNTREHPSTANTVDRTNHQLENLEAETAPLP

T1 sequence (P42866 whole entry): as above
Mu-type opioid receptor (Homo sapiens), sequence (P35372 whole entry): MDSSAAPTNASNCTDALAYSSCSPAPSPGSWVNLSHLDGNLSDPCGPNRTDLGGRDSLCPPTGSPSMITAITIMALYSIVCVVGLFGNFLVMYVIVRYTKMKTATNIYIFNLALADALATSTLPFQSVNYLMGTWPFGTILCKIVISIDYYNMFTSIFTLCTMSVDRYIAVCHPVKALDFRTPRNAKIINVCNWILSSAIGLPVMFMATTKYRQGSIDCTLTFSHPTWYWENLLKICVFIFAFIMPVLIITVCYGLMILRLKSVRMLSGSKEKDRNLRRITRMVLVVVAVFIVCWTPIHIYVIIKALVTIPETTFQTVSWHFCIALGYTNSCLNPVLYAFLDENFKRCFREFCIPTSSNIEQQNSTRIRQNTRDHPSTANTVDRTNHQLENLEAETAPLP

Structure (SMILES)	Emax [1] [%]	other results
O=C(N[C@H]1C=C[C@@]2(O)[C@H]3Cc4ccc(O)c5c4[C@@]2(CCN3CC2CC2)[C@H]1O5)c1c[nH]c2cccnc12	18	
O=C(N[C@@H]1C=C[C@@]2(O)[C@H]3Cc4ccc(O)c5c4[C@@]2(CCN3CC2CC2)[C@H]1O5)c1n[nH]c2ccccc12	39.6	
O=C(N[C@H]1C=C[C@@]2(O)[C@H]3Cc4ccc(O)c5c4[C@@]2(CCN3CC2CC2)[C@H]1O5)c1c[nH]c2ccccc12		Ki (Mu-type opioid receptor [2]): 0.29 nM; EC50 (Mu-type opioid receptor [3]): 1 nM; Emax [4]: 33.3%
O=C(N[C@@H]1C=C[C@@]2(O)[C@H]3Cc4ccc(O)c5c4[C@@]2(CCN3CC2CC2)[C@H]1O5)c1c[nH]c2ccncc12	14.9	
O=C(N[C@@H]1C=C[C@@]2(O)[C@H]3Cc4ccc(O)c5c4[C@@]2(CCN3CC2CC2)[C@H]1O5)c1c[nH]c2ccccc12		Ki (Mu-type opioid receptor [2]): 0.19 nM; EC50 (Mu-type opioid receptor [3]): 0.22 nM; Emax ([4]; filed as partial agonist): 79.5%
O=C(N[C@@H]1C=C[C@@]2(O)[C@H]3Cc4ccc(O)c5c4[C@@]2(CCN3CC2CC2)[C@H]1O5)c1c[nH]c2cnccc12	26.2	
O=C(N[C@@H]1C=C[C@@]2(O)[C@H]3Cc4ccc(O)c5c4[C@@]2(CCN3CC2CC2)[C@H]1O5)c1c[nH]c2ncccc12		Emax ([1]; filed as partial agonist): 40.7%
O=C(N[C@@H]1C=C[C@@]2(O)[C@H]3Cc4ccc(O)c5c4[C@@]2(CCN3CC2CC2)[C@H]1O5)c1c[nH]c2cccnc12	22.4	
O=C(N[C@H]1C=C[C@@]2(O)[C@H]3Cc4ccc(O)c5c4[C@@]2(CCN3CC2CC2)[C@H]1O5)c1c[nH]c2cnccc12	21.1	
O=C(N[C@H]1C=C[C@@]2(O)[C@H]3Cc4ccc(O)c5c4[C@@]2(CCN3CC2CC2)[C@H]1O5)c1cccc2cc[nH]c12		Emax [4]: 19.1%
O=C(N[C@H]1C=C[C@@]2(O)[C@H]3Cc4ccc(O)c5c4[C@@]2(CCN3CC2CC2)[C@H]1O5)c1c[nH]c2ncccc12	22.1	
O=C(N[C@H]1C=C[C@@]2(O)[C@H]3Cc4ccc(O)c5c4[C@@]2(CCN3CC2CC2)[C@H]1O5)c1n[nH]c2ccccc12	12.3	
O=C(N[C@H]1C=C[C@@]2(O)[C@H]3Cc4ccc(O)c5c4[C@@]2(CCN3CC2CC2)[C@H]1O5)c1c[nH]c2ccncc12	21.7	

— ChEMBL document CHEMBL4814025, “Exploring naltrexamine derivatives featuring azaindole moiety via nitrogen-walk approach to investigate their in vitro pharmacological profiles at the mu opioid receptor” (Bioorg Med Chem Lett, 2021)
